Experimental data reported in patent US11130679B2, “Biodegradable hollow nanoparticles and methods and apparatus for manufacturing the same” (University of Utah Research Foundation, priority 2018, dated 2021).
Where a name gives a salt, the structure may show the parent alone.

Assay: CCK-8 cytotoxicity in MCF-7 cells
Type: cell-based
Details: human, MCF-7 breast cancer epithelial cells, MCF-7, 6 μg mL^−1 of DOX
Experimental: Cytotoxicity of the intact GSH-sensitive HMSiO2 NPs, TEOS HMSiO2 NPs, DOX-loaded GSH-sensitive HMSiO2 NPs, DOX-loaded TEOS HMSiO2 NPs, and free DOX was evaluated in MCF-7 breast cancer epithelial cells. Cells were cultured at 37° C. in 5% CO2 in DMEM with 10% FBS. Then, the cells were stained using Trypan Blue Stain 0.4% and read by Invitrogen Countess™ automated cell counter (Thermo Fisher Scientific Corporation, Grand Island, N.Y., USA). For the cytotoxicity evaluation, cells were seeded onto 96-well plates with the density of 4,000 cells/well and incubated to grow for 48 h. After 48 h, the cells were washed with PBS. Fresh media containing 10% FBS was then added (120 μL) with varying nanoparticle concentrations ranging from 0 to 1,000 μg mL^−1. Wells with media or Triton™ X-100 (without nanoparticles) were used as negative or positive controls, respectively. The cells were then incubated for another 24 and 48 h, the media was aspirated, and the cells were washed twice with PBS. Cell viability was determined using CCK-8 cytotoxicity assay kit according to an established protocol and absorbance was measured at 450 nm with SpectraMax® M2 microplate reader. Assays were performed at least in triplicate.

With `COc1cccc2c1C(=O)c1c(O)c3c(c(O)c1C2=O)C[C@@](O)(C(=O)CO)C[C@@H]3O[C@H]1C[C@H](N)[C@H](O)[C@H](C)O1` [free DOX, Doxorubicin hydrochloride salt] the cytotoxicity at 24 h, 6 μg mL^−1 (24 h incubation, read-out: Cell viability reduction (cells killed)) was roughly 64% and the cytotoxicity at 48 h, 6 μg mL^−1 (48 h incubation, read-out: Cell viability reduction) was roughly 80%.
